Test results published in article PMC11784652, “Two complementing in vivo selection systems based on CCA-trimming exonucleases as a tool to monitor, select and evaluate enzymatic features of tRNA nucleotidyltransferases” (RNA Biology, 2025).
Where a chain is given by its changes, count along the chain named.

Assays:
[1] = target: T1, HsaCCA (human CCA-adding enzyme, tRNA nucleotidyltransferase) (Homo sapiens, UniProt Q96Q11); assay: in vitro nucleotide incorporation on […]-labelled yeast tRNA-Phe-CC; format: biochemical; conditions: 1 mM ATP, A-addition, co-substrate tRNA-Phe-CC, 37 °C; no binding to apoenzyme detected by DRaCALA
T1 construct: gene TRNT1; N-terminal His-tag, pET28a(+), expressed in E. coli BL21(DE3) delta-cca
T1 sequence (Q96Q11 30-434): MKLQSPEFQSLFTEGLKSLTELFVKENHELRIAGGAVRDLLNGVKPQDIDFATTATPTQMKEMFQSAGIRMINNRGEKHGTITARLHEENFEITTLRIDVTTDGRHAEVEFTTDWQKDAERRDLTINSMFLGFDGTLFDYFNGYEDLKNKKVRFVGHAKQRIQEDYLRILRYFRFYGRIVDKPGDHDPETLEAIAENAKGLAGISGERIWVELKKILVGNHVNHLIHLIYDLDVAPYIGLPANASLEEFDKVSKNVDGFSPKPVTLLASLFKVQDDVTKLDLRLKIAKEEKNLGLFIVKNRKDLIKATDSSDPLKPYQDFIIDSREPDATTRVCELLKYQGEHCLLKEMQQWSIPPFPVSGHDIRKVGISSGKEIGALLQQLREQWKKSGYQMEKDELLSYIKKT

[2] = target: T1, HsaCCA (human CCA-adding enzyme, tRNA nucleotidyltransferase); assay: DRaCALA (nitrocellulose radioligand spot assay); format: binding; conditions: 4 °C, 10 min, HEPES/KOH pH 7.6, 30 mM KCl, 6 mM MgCl2, no tRNA; 1 nM labelled compound (α-32P)
[3] = target: T2, HsaCCA (human CCA-adding enzyme, tRNA nucleotidyltransferase) (Homo sapiens, UniProt Q96Q11, E193G); assay: DRaCALA (nitrocellulose radioligand spot assay); format: binding; conditions: 4 °C, 10 min, HEPES/KOH pH 7.6, 30 mM KCl, 6 mM MgCl2, no tRNA; 1 nM labelled compound (α-32P)
T2 construct: gene TRNT1; N-terminal His-tag, pET28a(+), expressed in E. coli BL21(DE3) delta-cca
T2 sequence (Q96Q11 30-434 E193G): T1 sequence (Q96Q11 30-434) with E164G

Compound | in vitro nucleotide incorporation on 32P-labelled yeast tRNA-Phe-CC [1] | DRaCALA (nitrocellulose radioligand spot assay) [2] | DRaCALA (nitrocellulose radioligand spot assay) [3]
Nc1ncnc2c1ncn2[C@@H]1O[C@H](COP(=O)(O)OP(=O)(O)OP(=O)(O)O)[C@@H](O)[C@H]1O [ATP] | Both enzyme versions readily add the terminal A if NTPs (N) or only ATP | – | –
Nc1ccn([C@@H]2O[C@H](COP(=O)(O)OP(=O)(O)OP(=O)(O)O)[C@@H](O)[C@H]2O)c(=O)n1 [CTP] | – | Both HsaCCA wt and HsaCCA E164G showed robust interaction with CTP | CTP binding of HsaCCA E164G seems to be less efficient compared to the wt enzyme
